Assays:
Assay type in all cases: biochemical
AKT = target: T1, AKT (Homo sapiens, UniProt Q9Y243); test: Kinase inhibition assay (33P transfer), AKT; conditions: Table 2, kinase inhibition class; read-out: AKT3-1
T1 construct: Kinases are expressed as either kinase domains or full length constructs; made in house
Procedure, shortened: (§1)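 Measured by scintillation: radiolabelled phosphate added by tagged recombinant kinases to poly(Glu,Tyr) 4:1 or poly(Arg,Ser) 3:1 attached to microtiter wells, counted once free label was washed away with 0.5% phosphoric acid.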

Itk = target: T2, Itk (Homo sapiens, UniProt Q08881); test: Kinase inhibition assay (33P transfer), Itk; conditions: read-out: Itk-1
T2 construct: Kinases are expressed as either kinase domains or full length constructs; made in house
T2 sequence (Q08881 1-620): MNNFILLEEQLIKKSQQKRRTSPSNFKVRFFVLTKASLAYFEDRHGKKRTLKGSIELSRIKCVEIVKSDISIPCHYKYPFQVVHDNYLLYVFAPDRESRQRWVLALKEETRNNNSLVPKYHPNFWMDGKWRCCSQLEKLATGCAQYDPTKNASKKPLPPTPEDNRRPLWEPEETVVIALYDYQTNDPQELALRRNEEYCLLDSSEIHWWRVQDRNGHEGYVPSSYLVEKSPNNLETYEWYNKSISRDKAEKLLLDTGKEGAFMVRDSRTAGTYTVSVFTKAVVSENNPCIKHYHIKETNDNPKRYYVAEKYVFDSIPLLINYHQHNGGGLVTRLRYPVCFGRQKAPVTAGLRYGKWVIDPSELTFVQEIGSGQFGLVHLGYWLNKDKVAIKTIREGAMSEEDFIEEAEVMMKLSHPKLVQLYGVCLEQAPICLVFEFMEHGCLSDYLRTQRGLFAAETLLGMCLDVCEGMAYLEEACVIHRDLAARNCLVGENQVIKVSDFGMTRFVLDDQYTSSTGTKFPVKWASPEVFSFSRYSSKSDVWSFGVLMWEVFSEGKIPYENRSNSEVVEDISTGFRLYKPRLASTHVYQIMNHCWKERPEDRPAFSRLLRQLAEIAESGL
Procedure, shortened: (§2)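 Recombinant kinase domains or full-length GST- or His-tagged constructs, from E. coli or baculovirus/High Five cells, sometimes with regulatory polypeptides. Transfer of 33P from ATP to plate-bound poly(Glu,Tyr) 4:1 or poly(Arg,Ser) 3:1 counted by liquid scintillation after phosphoric acid wash; IC50 is the concentration halving incorporation.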

Zap-70 = target: T3, Zap-70 (Homo sapiens, UniProt P43403); test: Kinase inhibition assay (33P transfer), Zap-70; conditions: read-out: Zap-1
T3 construct: Kinases are expressed as either kinase domains or full length constructs; made in house
T3 sequence (P43403 1-619): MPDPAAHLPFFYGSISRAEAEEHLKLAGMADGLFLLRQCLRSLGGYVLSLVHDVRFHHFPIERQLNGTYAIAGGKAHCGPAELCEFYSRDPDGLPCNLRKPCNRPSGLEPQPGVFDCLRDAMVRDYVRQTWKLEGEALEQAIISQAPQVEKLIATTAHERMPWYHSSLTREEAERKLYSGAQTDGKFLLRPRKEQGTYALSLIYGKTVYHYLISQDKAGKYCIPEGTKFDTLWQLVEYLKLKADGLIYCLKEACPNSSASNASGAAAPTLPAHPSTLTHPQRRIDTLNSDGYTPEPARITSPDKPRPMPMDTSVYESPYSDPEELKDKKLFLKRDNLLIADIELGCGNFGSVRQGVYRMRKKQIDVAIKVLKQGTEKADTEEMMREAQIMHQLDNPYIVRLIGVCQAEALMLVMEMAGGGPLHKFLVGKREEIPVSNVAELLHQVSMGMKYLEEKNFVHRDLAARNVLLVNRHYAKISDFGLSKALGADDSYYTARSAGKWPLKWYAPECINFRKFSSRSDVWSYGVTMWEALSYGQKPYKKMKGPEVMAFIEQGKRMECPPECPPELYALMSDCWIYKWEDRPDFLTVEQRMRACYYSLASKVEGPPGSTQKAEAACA
Procedure, shortened: as §1

Kdr = target: T4, Kdr (Homo sapiens, UniProt P35968); test: Kinase inhibition assay (33P transfer), Kdr; conditions: read-out: KDR-1
T4 construct: Kinases are expressed as either kinase domains or full length constructs; made in house
Procedure, shortened: as §1

Lck = target: T5, Lck (Homo sapiens, UniProt P06239); test: Kinase inhibition assay (33P transfer), Lck; conditions: read-out: Lck-1
T5 construct: Kinases are expressed as either kinase domains or full length constructs; made in house
Procedure, shortened: as §1

ErbB2 = target: T6, ErbB2 (Homo sapiens, UniProt P04626); test: Kinase inhibition assay (33P transfer), ErbB2; conditions: read-out: ErbB2-2
T6 construct: Kinases are expressed as either kinase domains or full length constructs; made in house
Description: The inhibitor compounds described herein are screened in the following manner. Kinases suitable for use in the following protocol to determine kinase activity of the compounds described herein include, -but are not limited to: Lck, Lyn, Src, Fyn, Syk, Zap-70, Itk, Tec, Btk, EGFR, ErbB2, Kdr, Flt-1, Flt-3, Tek, c-Met, InsR, and AKT.
Kinases are expressed as either kinase domains or full length constructs fused to glutathione S-transferase (GST) or polyHistidine tagged fusion proteins in either E. colior Baculovirus-High Five expression systems. They are purified to near homogeneity by affinity chromatography essentially as previously described (Lehr et al., 1996; Gish et al., 1995). In some instances, kinases are co-expressed or mixed with purified or partially purified regulatory polypeptides prior to measurement of activity.
Kinase activity and inhibition are measured essentially by established protocols (Braunwalder et al., 1996). Briefly, The transfer of ^33PO4 from ATP to the synthetic substrates poly(Glu, Tyr) 4:1 or poly(Arg, Ser) 3:1 attached to the bioactive surface of microtiter plates serves as the basis to evaluate enzyme activity. After an incubation period, the amount of phosphate transferred is measured by first washing the plate with 0.5% phosphoric acid, adding liquid scintillant, and then counting in a liquid scintillation detector. The IC50 is determined by the concentration of compound that causes a 50% reduction in the amount of […] incorporated onto the substrate bound to the plate.

PDGFRB = target: T7, PDGFRB (Homo sapiens, UniProt P09619); test: Kinase inhibition assay (33P transfer), PDGFRB; conditions: read-out: PDGFRB-1
T7 construct: Kinases are expressed as either kinase domains or full length constructs; made in house

c-Met = target: T8, c-Met (Homo sapiens, UniProt P08581); test: Kinase inhibition assay (33P transfer), c-Met; conditions: Table 2, kinase inhibition class; read-out: Met-1
T8 construct: Kinases are expressed as either kinase domains or full length constructs; made in house
Procedure, shortened: as §2

IGFR-1 = target: T9, IGFR-1 (Homo sapiens, UniProt P08069); test: Kinase inhibition assay, IGFR-1 (Table 2); conditions: Table 2, kinase inhibition class
T9 construct: Kinases are expressed as either kinase domains or full length constructs; made in house

EGFR = target: T10, EGFR (Homo sapiens, UniProt P00533); test: Kinase inhibition assay (33P transfer), EGFR; conditions: Table 2, kinase inhibition class; read-out: EGFR-1
T10 construct: Kinases are expressed as either kinase domains or full length constructs; made in house
Procedure, shortened: as §2

T9 sequence (P08069 31-1367): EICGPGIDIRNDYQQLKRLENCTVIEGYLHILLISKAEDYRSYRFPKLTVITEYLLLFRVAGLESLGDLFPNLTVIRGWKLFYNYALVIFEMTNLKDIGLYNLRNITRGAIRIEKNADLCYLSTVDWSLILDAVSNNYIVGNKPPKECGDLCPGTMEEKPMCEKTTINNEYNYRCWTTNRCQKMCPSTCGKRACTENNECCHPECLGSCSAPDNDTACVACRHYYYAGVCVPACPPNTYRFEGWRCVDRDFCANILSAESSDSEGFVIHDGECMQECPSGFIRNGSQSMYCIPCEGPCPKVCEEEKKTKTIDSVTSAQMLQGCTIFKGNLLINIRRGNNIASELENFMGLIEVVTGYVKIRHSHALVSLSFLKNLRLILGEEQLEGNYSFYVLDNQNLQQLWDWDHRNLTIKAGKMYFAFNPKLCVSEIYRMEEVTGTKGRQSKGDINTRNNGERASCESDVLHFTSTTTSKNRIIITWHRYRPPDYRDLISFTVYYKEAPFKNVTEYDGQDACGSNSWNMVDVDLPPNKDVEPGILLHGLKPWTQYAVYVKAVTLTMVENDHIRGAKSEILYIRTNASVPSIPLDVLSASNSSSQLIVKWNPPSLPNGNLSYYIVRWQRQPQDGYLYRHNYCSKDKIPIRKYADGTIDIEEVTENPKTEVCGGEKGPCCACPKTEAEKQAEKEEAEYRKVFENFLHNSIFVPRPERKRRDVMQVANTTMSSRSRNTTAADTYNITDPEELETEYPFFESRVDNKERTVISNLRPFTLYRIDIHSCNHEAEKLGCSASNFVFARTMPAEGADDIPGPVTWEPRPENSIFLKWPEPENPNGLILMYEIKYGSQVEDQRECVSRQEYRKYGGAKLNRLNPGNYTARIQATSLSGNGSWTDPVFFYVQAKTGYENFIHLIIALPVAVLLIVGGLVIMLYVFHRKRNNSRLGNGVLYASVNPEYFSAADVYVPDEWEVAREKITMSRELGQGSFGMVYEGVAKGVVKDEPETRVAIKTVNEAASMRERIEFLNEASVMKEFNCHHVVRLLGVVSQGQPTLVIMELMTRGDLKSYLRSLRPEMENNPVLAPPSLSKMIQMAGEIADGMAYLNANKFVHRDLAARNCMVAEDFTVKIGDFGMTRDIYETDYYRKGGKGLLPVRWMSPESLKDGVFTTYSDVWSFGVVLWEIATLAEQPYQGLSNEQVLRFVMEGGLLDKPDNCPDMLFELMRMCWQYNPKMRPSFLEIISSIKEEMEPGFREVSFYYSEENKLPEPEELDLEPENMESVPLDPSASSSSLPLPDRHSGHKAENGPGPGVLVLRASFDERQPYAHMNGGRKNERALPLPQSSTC
T1 sequence (Q9Y243 whole entry, the tested form may be a part): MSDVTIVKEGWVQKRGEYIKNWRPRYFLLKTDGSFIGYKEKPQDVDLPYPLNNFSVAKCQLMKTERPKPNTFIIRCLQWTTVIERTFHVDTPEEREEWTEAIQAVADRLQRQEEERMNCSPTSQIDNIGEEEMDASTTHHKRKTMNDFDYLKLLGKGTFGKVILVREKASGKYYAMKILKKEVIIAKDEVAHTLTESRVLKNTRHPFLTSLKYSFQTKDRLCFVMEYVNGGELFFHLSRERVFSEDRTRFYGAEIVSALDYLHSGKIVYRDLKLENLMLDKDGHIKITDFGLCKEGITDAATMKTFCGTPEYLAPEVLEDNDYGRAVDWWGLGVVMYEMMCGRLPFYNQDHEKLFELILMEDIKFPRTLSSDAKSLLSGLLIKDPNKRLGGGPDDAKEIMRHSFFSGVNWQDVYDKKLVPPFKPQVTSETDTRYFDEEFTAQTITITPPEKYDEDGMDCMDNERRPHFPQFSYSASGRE
T6 sequence (P04626 23-1255, species assumed): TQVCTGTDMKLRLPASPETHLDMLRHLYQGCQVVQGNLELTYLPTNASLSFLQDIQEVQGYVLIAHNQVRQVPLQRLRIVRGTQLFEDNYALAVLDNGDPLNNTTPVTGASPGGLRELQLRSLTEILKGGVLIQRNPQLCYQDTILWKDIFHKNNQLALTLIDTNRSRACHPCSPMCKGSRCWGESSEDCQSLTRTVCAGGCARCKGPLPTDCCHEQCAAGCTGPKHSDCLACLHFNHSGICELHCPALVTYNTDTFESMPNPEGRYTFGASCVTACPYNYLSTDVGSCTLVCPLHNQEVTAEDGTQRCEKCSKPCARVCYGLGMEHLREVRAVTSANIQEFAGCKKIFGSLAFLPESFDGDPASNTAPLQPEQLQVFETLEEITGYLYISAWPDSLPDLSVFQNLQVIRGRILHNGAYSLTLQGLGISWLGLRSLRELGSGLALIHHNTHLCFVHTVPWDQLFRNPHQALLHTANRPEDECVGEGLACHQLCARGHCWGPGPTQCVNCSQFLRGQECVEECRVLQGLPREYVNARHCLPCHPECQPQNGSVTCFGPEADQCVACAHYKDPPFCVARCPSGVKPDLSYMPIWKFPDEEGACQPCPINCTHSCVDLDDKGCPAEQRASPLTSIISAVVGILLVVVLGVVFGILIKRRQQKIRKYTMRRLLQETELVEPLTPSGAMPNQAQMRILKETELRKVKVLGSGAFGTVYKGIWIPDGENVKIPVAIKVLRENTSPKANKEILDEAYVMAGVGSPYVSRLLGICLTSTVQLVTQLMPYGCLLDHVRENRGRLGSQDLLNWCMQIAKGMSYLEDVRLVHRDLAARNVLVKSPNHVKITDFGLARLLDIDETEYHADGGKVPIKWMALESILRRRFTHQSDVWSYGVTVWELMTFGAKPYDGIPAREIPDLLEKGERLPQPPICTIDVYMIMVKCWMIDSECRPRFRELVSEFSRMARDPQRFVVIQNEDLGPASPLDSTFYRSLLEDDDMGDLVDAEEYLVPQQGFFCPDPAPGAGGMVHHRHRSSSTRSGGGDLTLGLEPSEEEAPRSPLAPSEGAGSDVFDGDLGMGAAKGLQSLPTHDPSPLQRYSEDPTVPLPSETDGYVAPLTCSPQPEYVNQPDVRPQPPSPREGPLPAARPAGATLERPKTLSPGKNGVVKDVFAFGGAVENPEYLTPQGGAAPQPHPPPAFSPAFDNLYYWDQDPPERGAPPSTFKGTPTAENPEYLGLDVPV
T8 sequence (P08581 25-1390): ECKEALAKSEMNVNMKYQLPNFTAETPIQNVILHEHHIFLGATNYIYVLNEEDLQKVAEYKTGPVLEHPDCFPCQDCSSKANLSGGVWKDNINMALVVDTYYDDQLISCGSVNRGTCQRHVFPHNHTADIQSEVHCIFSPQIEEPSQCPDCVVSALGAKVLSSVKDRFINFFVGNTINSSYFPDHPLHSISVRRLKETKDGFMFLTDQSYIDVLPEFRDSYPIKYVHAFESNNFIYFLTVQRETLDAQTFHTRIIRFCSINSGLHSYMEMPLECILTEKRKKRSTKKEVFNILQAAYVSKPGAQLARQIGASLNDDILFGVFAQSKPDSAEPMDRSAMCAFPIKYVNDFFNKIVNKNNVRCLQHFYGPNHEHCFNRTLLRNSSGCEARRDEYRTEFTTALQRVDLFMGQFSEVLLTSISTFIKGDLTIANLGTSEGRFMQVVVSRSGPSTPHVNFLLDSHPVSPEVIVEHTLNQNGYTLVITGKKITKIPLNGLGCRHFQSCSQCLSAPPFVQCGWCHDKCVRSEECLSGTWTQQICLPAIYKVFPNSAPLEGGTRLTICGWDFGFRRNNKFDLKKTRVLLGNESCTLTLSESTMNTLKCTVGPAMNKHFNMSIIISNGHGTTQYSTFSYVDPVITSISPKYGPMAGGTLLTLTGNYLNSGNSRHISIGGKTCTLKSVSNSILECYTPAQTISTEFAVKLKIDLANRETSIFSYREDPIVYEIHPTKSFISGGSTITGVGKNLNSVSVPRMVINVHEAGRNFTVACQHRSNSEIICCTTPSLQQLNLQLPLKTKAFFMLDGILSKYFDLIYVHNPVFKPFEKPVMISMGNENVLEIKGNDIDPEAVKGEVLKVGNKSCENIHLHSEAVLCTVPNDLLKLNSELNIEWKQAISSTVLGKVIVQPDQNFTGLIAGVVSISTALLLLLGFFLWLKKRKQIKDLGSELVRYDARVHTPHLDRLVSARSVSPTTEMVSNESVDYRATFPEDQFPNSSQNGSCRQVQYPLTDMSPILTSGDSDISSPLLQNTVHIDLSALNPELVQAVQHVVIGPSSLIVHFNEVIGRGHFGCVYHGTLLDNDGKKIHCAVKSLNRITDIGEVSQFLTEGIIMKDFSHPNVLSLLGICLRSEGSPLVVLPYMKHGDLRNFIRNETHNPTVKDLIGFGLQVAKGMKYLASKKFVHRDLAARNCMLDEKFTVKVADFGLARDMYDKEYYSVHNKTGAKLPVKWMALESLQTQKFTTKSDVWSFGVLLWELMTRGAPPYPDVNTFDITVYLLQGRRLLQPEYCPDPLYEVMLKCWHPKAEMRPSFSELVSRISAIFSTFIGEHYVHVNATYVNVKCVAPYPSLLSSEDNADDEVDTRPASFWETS
T5 sequence (P06239 whole entry, species assumed, the tested form may be a part): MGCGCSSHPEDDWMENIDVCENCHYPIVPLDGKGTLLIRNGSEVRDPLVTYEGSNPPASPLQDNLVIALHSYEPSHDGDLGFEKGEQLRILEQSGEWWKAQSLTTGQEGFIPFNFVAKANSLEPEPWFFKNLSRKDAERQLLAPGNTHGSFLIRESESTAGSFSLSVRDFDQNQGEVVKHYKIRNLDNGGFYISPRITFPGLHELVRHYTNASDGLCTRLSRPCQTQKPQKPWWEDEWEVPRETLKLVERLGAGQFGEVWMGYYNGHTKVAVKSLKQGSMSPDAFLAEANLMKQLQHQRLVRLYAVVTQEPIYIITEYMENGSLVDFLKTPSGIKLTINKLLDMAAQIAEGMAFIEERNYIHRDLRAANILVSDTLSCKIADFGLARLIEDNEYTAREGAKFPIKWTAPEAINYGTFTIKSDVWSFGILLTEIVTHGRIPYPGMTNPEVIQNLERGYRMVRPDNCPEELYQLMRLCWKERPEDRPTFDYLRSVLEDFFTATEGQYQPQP

| IC50 (AKT) [µM] | IC50 (Itk) [µM] | IC50 (Zap-70) [µM] | IC50 (Kdr) [µM] | IC50 (Lck) [µM] | IC50 (ErbB2) [µM] | IC50 (PDGFRB) [µM] | IC50 (c-Met) [µM] | IC50 (IGFR-1) [µM] | IC50 (EGFR) [µM] | SMILES |
| --- | --- | --- | --- | --- | --- | --- | --- | --- | --- | --- |
| > 11 | > 11 | > 11 | 0.979 to 5.87 | > 11 | > 11 | > 11 | > 11 | > 11 | > 11 | CN(c1ccc(F)c(Cl)c1)c1ncnc(Nc2cccc(Br)c2)n1 [Compound 713] |
| > 8.8 | > 8.8 | > 8.8 | < 0.782 | < 0.782 | > 8.8 | < 0.782 | > 8.8 | > 8.8 | > 8.8 | COc1cc(Nc2ncnc(-n3c(NC(C)(C)c4ccccc4)nc4ccccc43)n2)cc(OC)c1OC [Compound 569] |
| 1.16 to 6.99 | 1.16 to 6.99 | 10.2 to 13.1 | 1.16 to 6.99 | 1.16 to 6.99 | 6.99 to 10.2 | 1.16 to 6.99 | 1.16 to 6.99 | < 1.16 | < 1.16 | Cc1cccc(Nc2ncnc(Nc3cc(-c4ccccc4)n[nH]3)n2)c1 [Compound 1012] |
| 6.77 to 9.88 | 9.88 to 12.7 | > 12.7 | < 1.13 | 1.13 to 6.77 | 1.13 to 6.77 | < 1.13 | 9.88 to 12.7 | > 12.7 | > 12.7 | COc1cc(Nc2ncnc(-c3cccnc3N)n2)cc(OC)c1OC [Compound 1091] |
| > 14.4 | > 14.4 | > 14.4 | 7.7 to 11.2 | 1.28 to 7.7 | 1.28 to 7.7 | 1.28 to 7.7 | 1.28 to 7.7 | 7.7 to 11.2 | < 1.28 | CN(c1cccc(Cl)c1)c1ncnc(Nc2ccccc2)n1 [Compound 748] |
| > 11.6 | > 11.6 | > 11.6 | > 11.6 | > 11.6 | > 11.6 | 6.21 to 9.06 | > 11.6 | > 11.6 | > 11.6 | COc1ccc(Nc2ncnc(NCCCN3CCCCC3C)n2)cc1OC (centres unmarked) [Compound 782] |
| > 14.2 | > 14.2 | > 14.2 | 1.26 to 7.56 | 7.56 to 11 | 7.56 to 11 | > 14.2 | > 14.2 | 11 to 14.2 | 7.56 to 11 | CN(c1ccccc1)c1ncnc(-n2c(N)nc3ccccc32)n1 [Compound 662] |
| 7.41 to 9.53 | > 9.53 | 7.41 to 9.53 | 0.847 to 5.08 | 5.08 to 7.41 | 5.08 to 7.41 | 7.41 to 9.53 | 5.08 to 7.41 | > 9.53 | < 0.847 | Brc1cccc(Nc2ncnc(Nc3ccc4c(cnn4Cc4ccccc4)c3)n2)c1 [Compound 554] |
| > 9.04 | > 9.04 | > 9.04 | < 0.804 | < 0.804 | < 0.804 | 0.804 to 4.82 | 0.804 to 4.82 | 7.03 to 9.04 | < 0.804 | COc1cc(Nc2ncnc(N(C)c3ccc4c(cnn4Cc4ccccc4)c3)n2)cc(OC)c1OC [Compound 566] |
| > 14.4 | > 14.4 | > 14.4 | > 14.4 | 1.28 to 7.67 | > 14.4 | 1.28 to 7.67 | 1.28 to 7.67 | > 14.4 | < 1.28 | CN(c1cccc(Cl)c1)c1ncnc(Nc2ccncc2)n1 [Compound 756] |
| > 7.94 | 4.24 to 6.18 | > 7.94 | > 7.94 | 0.706 to 4.24 | 4.24 to 6.18 | > 7.94 | < 0.706 | < 0.706 | > 7.94 | COc1cc(Nc2ncnc(Nc3cc(-c4ccc(C(=O)NCCc5ccccc5)cc4)n[nH]3)n2)cc(OC)c1OC [Compound 1006] |
| > 10.8 | 0.957 to 5.74 | > 10.8 | 0.957 to 5.74 | < 0.957 | 0.957 to 5.74 | < 0.957 | 8.38 to 10.8 | < 0.957 | 0.957 to 5.74 | COc1ccc(Cl)cc1Nc1ncnc(Nc2cc(OC)c(OC)c(OC)c2)n1 [Compound 627] |
| > 11.4 | > 11.4 | 6.09 to 8.89 | 1.02 to 6.09 | 1.02 to 6.09 | < 1.02 | 1.02 to 6.09 | < 1.02 | > 11.4 | < 1.02 | CN(c1cccc(Cl)c1)c1ncnc(Nc2cccc(Cc3nnn[nH]3)c2)n1 [Compound 720] |
| > 11.7 | > 11.7 | > 11.7 | 9.1 to 11.7 | > 11.7 | 9.1 to 11.7 | > 11.7 | 6.24 to 9.1 | > 11.7 | > 11.7 | Cc1ccc2c(c1)CCCN2c1ncnc(NCCc2c[nH]c3ccccc23)n1 [Compound 768] |
| > 12.4 | > 12.4 | > 12.4 | > 12.4 | > 12.4 | 9.61 to 12.4 | > 12.4 | > 12.4 | > 12.4 | < 1.1 | CN(c1cccc(Cl)c1)c1ncnc(Nc2ccc(F)c(Cl)c2)n1 [Compound 703] |
| > 8.29 | > 8.29 | > 8.29 | 4.42 to 6.45 | < 0.737 | 4.42 to 6.45 | 4.42 to 6.45 | > 8.29 | 4.42 to 6.45 | < 0.737 | COc1cc(Nc2ncnc(Nc3cc(OC)c(OCCN4CCOCC4)c(OC)c3)n2)cc(OC)c1OC [Compound 562] |
| 9.32 to 12 | 1.07 to 6.39 | 9.32 to 12 | < 1.07 | 1.07 to 6.39 | 6.39 to 9.32 | 1.07 to 6.39 | 6.39 to 9.32 | < 1.07 | 6.39 to 9.32 | COC(=O)Cc1cccc(Nc2ncnc(-n3c(N)nc4ccccc43)n2)c1 [Compound 546] |

Reference: patent US7074789B2, “Kinase inhibitors” (Amgen Inc., priority 1999, dated 2006)
